Values quoted from earlier work in patent US20230149510A1, “METHOD FOR ALLEVIATING ARTHRITIS USING EPIDERMAL GROWTH FACTOR” (Lovin BioMed Co., Ltd., priority 2021, published 2023).

Tests used:
[1] = system: collagen-induced arthritis; details: Swanson C. D. et al. (2012); cited from earlier work
[2] = system: OA; details: Sun H. et al. (2018); cited from earlier work

| Structure (SMILES) | effect on collagen-induced arthritis [1] | effect on symptoms in mice with OA [2] |
| --- | --- | --- |
| C#Cc1cccc(Nc2ncnc3cc(OCCOC)c(OCCOC)cc23)c1 [erlotinib] | can alleviate collagen-induced arthritis | – |
| COc1cc2ncnc(Nc3ccc(F)c(Cl)c3)c2cc1OCCCN1CCOCC1 [gefitinib] | – | can improve symptoms in mice with OA |
